Reference: patent US20110230504A1, “ALLEVIATING DISORDERS WITH COMBINING AGENTS THAT INCREASE EPOXYGENATED FATTY ACIDS AND AGENTS THAT INCREASE cAMP” (The Regents Of The University Of California Office Of …, priority 2008, published 2011)

Tests used:
rats [1] = test: Intraplantar carrageenan inflammatory pain model, intrathecal sEHI; format: in vivo, rat; details: intrathecal 0.1-3 μg
Description: The study was approved by UC Davis Animal Care and Use Committee. Male Sprague-Dawley rats weighing 250-350 g were obtained from Charles River Inc. Two models of inflammatory pain and one model of diabetic neuropathic pain were used to test the effects of sEHI. The main inflammatory pain model used involved intraplantar LPS (10 μg/animal) administration as described previously (Inceoglu B et al., Life Sci 79:2311-2319 (2006)). Briefly, following baseline thermal withdrawal latency and mechanical withdrawal threshold determination LPS (in saline) was administered into one hind paw and nociceptive thresholds were monitored over time. The other inflammatory pain model involved intraplantar carrageenan (1% in saline, 50 μl) administration and was only used when sEHI was administered into the spinal cord. Intrathecal catheters were implanted according to Yaksh and Rudy (Yaksh T L and Rudy T A, Physiol Behav 17(6):1031-1036 (1976)). Following baseline nociceptive response measurements carrageenan was administered into one hind paw and responses were monitored over time and after intraspinal sEHI administration. […] In experiments in which EETs, sEHI and cAMP analogue was administered intraspinally animals were maintained under deep anesthesia and therefore nociceptive thresholds were not determined.

rats [2] = test: Thermal withdrawal latency, intraplantar LPS inflammatory pain model and non-inflamed controls; format: in vivo, rat; details: for thermal withdrawal latency in the absence of inflammation: control rats, i.pl. saline
COX2 mRNA = test: Spinal COX2 mRNA after intraplantar LPS, qRT-PCR; format: in vivo, rat; details: rats
Source text: (§1) A purelink Micro to Midi total RNA purification kit (Invitrogen, CA) was used to extract RNA from whole spinal cord, adrenal gland and testis. For brain, the remaining caudal two thirds were sliced into two hemispheres from the midline and a coronal slice of 2 mm in thickness was taken for analysis. The RNA samples were quantified by spectrophotometry and converted to cDNA using a high capacity cDNA reverse transcription kit from Applied Biosystems (CA, USA). Taq-man probes for COX2 (Rn00568225_ml) StARD1 (Rn00580695_ml), ICER(Rn00569145_ml), Sst (Rn00561967_ml), sEH(Rn00576023_ml) genes were used according to manufacturer's instructions to quantify relative gene expression (Applied Biosystems). Experiments were performed in triplicate with GAPDH (glyceraldehyde 3-phosphate dehydrogenase message) serving as the endogenous control. Mean fold expression values from corresponding untreated animal tissues were used as calibrators.

StARD1 mRNA [3] = test: StARD1 mRNA in LPS inflamed rats, qRT-PCR; format: in vivo, rat
Source text: as §1

StARD1 mRNA [4] = test: StARD1 mRNA 30 min after intraspinal 8-Br cAMP, EETs, AEPU in non-inflamed rats; format: in vivo, rat; details: 8-Br cAMP 100 μg, EETs 5 μg, AEPU 1 μg
Description: To investigate the cooperation between cAMP and EETs in the spinal cord, a membrane permeable cAMP analogue, 8-Br cAMP (100 μg), was administered into the spinal cord by lumbar puncture (between L4-L5) and rapid (30 min.) expression of StARD1 mRNA in the spinal cord and the brain was quantified by qRT-PCR. In these experiments animals were maintained under deep anesthesia.

[5] = Metabolic stability and pharmacokinetics of sEH inhibitors (statements)
[6] = test system: plasma oxylipins (EETs, DHETs, PGE2); test: Plasma oxylipin analysis in LPS treated rats; format: in vivo, rat; details: LPS treated rats, two hours
Source text: Plasma was collected by cardiac puncture under deep anesthesia. Rats were anesthetized by isoflurane overdose and decapitated. Whole brains were immediately excised and flash frozen. […] Dorsal roots were excluded.

[7] = test system: circulating testosterone and progesterone; test: Circulating steroid hormone levels by RIA; format: in vivo, rat; details: rats
[8] = Brain, blood and plasma inhibitor levels, LC-ESI-MS/MS; details: AEPU dermal, TPAU systemic administration
[9] = biological target: peripheral benzodiazepine receptor (PBR, TSPO) (Rattus norvegicus, UniProt P16257); test: Displacement of [3H] PK11195 from TSPO (rat heart mitochondria, CEREP); details: methyl ester forms
sEH = biological target: T1, sEH (Homo sapiens, UniProt P34913); test: Testing as sEH inhibitors (assay not specified); format: biochemical
T1 sequence (P34913 1-555): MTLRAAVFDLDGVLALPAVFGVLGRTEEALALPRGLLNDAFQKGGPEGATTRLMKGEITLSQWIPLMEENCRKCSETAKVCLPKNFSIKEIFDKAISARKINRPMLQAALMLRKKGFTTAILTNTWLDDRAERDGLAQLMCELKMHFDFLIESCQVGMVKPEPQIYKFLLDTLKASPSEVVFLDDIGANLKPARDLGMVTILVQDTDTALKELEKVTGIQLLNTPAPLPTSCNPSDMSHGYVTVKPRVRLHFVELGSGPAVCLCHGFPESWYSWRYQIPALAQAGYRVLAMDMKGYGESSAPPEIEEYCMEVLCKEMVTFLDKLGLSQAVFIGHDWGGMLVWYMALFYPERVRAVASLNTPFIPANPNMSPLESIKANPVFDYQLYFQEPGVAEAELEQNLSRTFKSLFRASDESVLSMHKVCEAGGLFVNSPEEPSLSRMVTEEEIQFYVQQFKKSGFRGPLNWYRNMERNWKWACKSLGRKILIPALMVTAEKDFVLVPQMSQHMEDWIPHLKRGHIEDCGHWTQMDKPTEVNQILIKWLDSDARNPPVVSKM
Source text: Any of a number of standard assays for determining epoxide hydrolase activity can be used to determine inhibition of sEH. For example, suitable assays are described in Gill, et al., Anal Biochem 131:273-282 (1983); and Borhan, et al., Analytical Biochemistry 231:188-200 (1995)). Suitable in vitro assays are described in Zeldin et al., J. Biol. Chem. 268:6402-6407 (1993). Suitable in vivo assays are described in Zeldin et al., Arch Biochem Biophys 330:87-96 (1996). Assays for epoxide hydrolase using both putative natural substrates and surrogate substrates have been reviewed (see, Hammock, et al. In: Methods in Enzymology, Volume III, Steroids and Isoprenoids, Part B, (Law, J. H. and H. C. Rilling, eds. 1985), Academic Press, Orlando, Fla., pp. 303-311 and Wixtrom et al., In: Biochemical Pharmacology and Toxicology, Vol. 1: Methodological Aspects of Drug Metabolizing Enzymes, (Zakim, D. and D. A. Vessey, eds. 1985), John Wiley & Sons, Inc., New York, pp. 1-93. Several spectral based assays exist based on the reactivity or tendency of the resulting diol product to hydrogen bond (see, e.g., Wixtrom, supra, and Hammock. Anal. Biochem. 174:291-299 (1985) and Dietze, et al. Anal. Biochem. 216:176-187 (1994)).

rats [10] = test: Open field / motor activity; format: in vivo, rat; details: rolipram 0.1 and TPAU 10 mg/kg
StARD1 mRNA [11] = test: StARD1 expression after rolipram and TPAU, qRT-PCR; format: in vivo, rat; details: rats
Source text: Briefly, RNA from whole spinal cord, brain and adrenal gland samples were extracted using a purelink Micro to Midi total RNA purification kit (Invitrogen, CA). The RNA samples were quantified by spectrophotometry and converted to cDNA using a high capacity cDNA reverse transcription kit from Applied Biosystems (CA, USA). Taq-man probe for StARD1 (Rn00580695_ml) was used according to manufacturer's instructions to quantify relative gene expression (Applied Biosystems CA, USA). Experiments were performed in triplicate with glyceraldehyde 3-phosphate dehydrogenase gene serving as the endogenous control. Mean fold expression values from corresponding vehicle treated animal tissues were used as calibrators.
These findings encouraged us to investigate the expression of StARD1 message as a marker of steroidogenic activity. […] Adrenal StARD1 from the same animals was also monitored as a marker of peripheral steroidogenesis.

mouse sEH = biological target: T2, mouse sEH (Mus musculus, UniProt P34914); test: biochemical
T2 sequence (P34914 1-554): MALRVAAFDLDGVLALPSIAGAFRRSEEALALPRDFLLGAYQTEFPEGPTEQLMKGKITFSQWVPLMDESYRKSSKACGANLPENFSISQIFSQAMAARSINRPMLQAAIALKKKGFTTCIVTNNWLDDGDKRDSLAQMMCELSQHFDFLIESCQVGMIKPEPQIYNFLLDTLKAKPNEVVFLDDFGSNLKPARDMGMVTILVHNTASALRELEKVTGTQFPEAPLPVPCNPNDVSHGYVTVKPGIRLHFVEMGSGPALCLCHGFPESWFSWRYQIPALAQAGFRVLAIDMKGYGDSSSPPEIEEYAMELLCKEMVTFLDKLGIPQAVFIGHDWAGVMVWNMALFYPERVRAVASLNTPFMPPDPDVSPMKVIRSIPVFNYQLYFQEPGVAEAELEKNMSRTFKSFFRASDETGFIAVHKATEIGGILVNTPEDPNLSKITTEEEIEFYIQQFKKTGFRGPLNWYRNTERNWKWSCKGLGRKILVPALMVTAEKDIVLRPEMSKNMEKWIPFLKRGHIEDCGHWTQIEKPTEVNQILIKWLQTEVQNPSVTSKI

Question: What does the source list for `CCOCCOCCOCCCCCNC(=O)NC12CC3CC(CC(C3)C1)C2` [AEPU, Adamantan-1-yl-3-{5-[2-(2-ethoxyethoxy)ethoxy]pentyl}urea]?
Answer: carrageenan induced mechanical allodynia (rats [1]): dose dependent decrease; carrageenan induced thermal hyperalgesia (rats [1]): dose dependent decrease; thermal withdrawal latency in the absence of inflammation (rats [2]): no effect; LPS elicited thermal hyperalgesia (thermal withdrawal latency) (rats [2]; rats, i.pl. LPS 10 μg): briefly increased; spinal COX2 message after LPS (COX2 mRNA): significantly suppressed; adrenal gland StARD1 mRNA induced by LPS (StARD1 mRNA [3]): reduced; brain StARD1 mRNA expression (StARD1 mRNA [3]): two-fold increase; spinal StARD1 mRNA expression (StARD1 mRNA [3]): sustained; testis StARD1 mRNA induced by LPS (StARD1 mRNA [3]): not in testis; spinal StARD1 expression (StARD1 mRNA [4]): without effect; metabolism [5]: metabolized rapidly; plasma DHET level [6]: decreased; plasma PGE2 level [6]: decreased; circulating / plasma progesterone level [7]: decreased; plasma testosterone level ([7]; with or without LPS): did not alter; penetration into the brain [8]: efficiently penetrated into the brain

Question: Which “competition with radioligand [3H] PK11195 at TSPO” value [9] does the source give for `CCCCC/C=C\C/C=C\CC1OC1C/C=C\CCCC(=O)O` (stereo not drawn) [8,9-EET] here?
Answer: did not compete

Question: Which metabolic stability [5] does the source give for `CCCCCCCCCCCCNC(=O)NC12CC3CC(CC(C3)C1)C2` [ADU, N-Adamantyl-N′-dodecyl urea] here?
Answer: metabolically stable

Question: What about the “activity as inhibitor of sEH” value (sEH) of the same molecule?
Answer: particularly high activity

Question: With `CC(=O)N1CCC(NC(=O)Nc2ccc(OC(F)(F)F)cc2)CC1` [TPAU] as the molecule, how does the “thermal withdrawal latency in the absence of inflammation” value (rats [2]) read?
Answer: no effect

Question: What about the “loss of motor activity” value (rats [2]; rats) of the same molecule?
Answer: No loss of motor activity

Question: And the metabolic stability [5]?
Answer: metabolically stable

Question: And the “oral availability and pharmacokinetics” value [5]?
Answer: excellent oral availability and pharmacokinetics

Question: And the “open field activity / motor function” value (rats [10])?
Answer: did not affect motor function

Question: And the “decrease in adrenal gland StARD1 expression” value (StARD1 mRNA [11])?
Answer: 30%

Question: And the IC50 (mouse sEH)?
Answer: 97 nM

Question: And the “penetration into the brain” value [8]?
Answer: efficiently penetrated into the brain
